{
  "source": "patent US20020192774A1",
  "about": "“Method for processing lignocellulosic material” (priority 2000, published 2002)",
  "origin": "cited, not measured here",
  "system": "yeast",
  "conditions": "pH values as low as 4.5; Taherzadeh et al., 1997",
  "data": [
    {"smiles": "CC(=O)O", "note": "[Acetic acid]", "values": [
      {"measurement": "acetate concentration at which yeast is able to grow", "value": 10, "unit": "g acetate per litre"}
    ]}
  ]
}
